According to patent US9808003B2, “Herbicidally active 2-(substituted-phenyl)-cyclopentane-1,3-dione compounds and derivatives thereof” (Syngenta Limited, priority 2013, dated 2017):

Experiments:
Assay in all cases: Test 1A glasshouse assay, post-emergence herbicidal activity
Format in all cases: in vivo
[1] = tested on: Echinochloa crus-galli (ECHCG); conditions: application rate 250 g/ha, 13 days after application, visual (100%=total damage; 0%=no damage); for pest or weed control at 250 g/ha: Echinochloa crus-galli, 312 h, read-out: Post-emergence Herbicidal Activity (% Phytotoxicity) ECHCG
Description: (§1) Seeds of a variety of test species were sown in standard soil in pots. After cultivation for one day (pre-emergence) or after 8 days cultivation (post-emergence) under controlled conditions in a glasshouse (at 24/16° C., day/night; 14 hours light; 65% humidity), the plants were sprayed with an aqueous spray solution derived from the formulation of the technical active ingredient in acetone/water (50:50) solution containing 0.5% Tween 20 (polyoxyethelyene sorbitan monolaurate, CAS RN 9005-64-5). The test plants were then grown under controlled conditions in a glasshouse (at 24/16° C., day/night; 14 hours light; 65% humidity) and watered twice daily. 13 days after application of the test herbicide, for pre- and post-emergence, the test was evaluated visually for percentage phytotoxicity to the plant (where 100%=total damage to plant; 0%=no damage to plant).
(§2) Lolium perenne (LOLPE), Alopecurus myosuroides (ALOMY), Echinochloa crus-galli (ECHCG), and Avena fatua (AVEFA); these are all grassy monocotyledonous weeds.

[2] = tested on: Alopecurus myosuroides (ALOMY); conditions: application rate 250 g/ha, 13 days after application, visual (100%=total damage; 0%=no damage); for pest or weed control at 250 g/ha: Alopecurus myosuroides, 312 h, read-out: Post-emergence Herbicidal Activity (% Phytotoxicity) ALOMY
Description: as §1, §2

Avena fatua (AVEFA) = conditions: application rate 250 g/ha, 13 days after application, visual (100%=total damage; 0%=no damage); for pest or weed control at 250 g/ha: Avena fatua, 312 h, read-out: Post-emergence Herbicidal Activity (% Phytotoxicity) AVEFA
Description: as §1, §2

Lolium perenne (LOLPE) = conditions: application rate 250 g/ha, 13 days after application, visual (100%=total damage; 0%=no damage); for pest or weed control at 250 g/ha: Lolium perenne, 312 h, read-out: Post-emergence Herbicidal Activity (% Phytotoxicity) LOLPE
Description: as §1, §2

Row | Structure (SMILES) | pest or weed control at 250 g/ha [1] [%] | pest or weed control at 250 g/ha [2] [%] | pest or weed control at 250 g/ha (Avena fatua (AVEFA)) [%] | pest or weed control at 250 g/ha (Lolium perenne (LOLPE)) [%] | Post-emergence Herbicidal Activity (% Phytotoxicity) ECHCG [1] [%] | Post-emergence Herbicidal Activity (% Phytotoxicity) ALOMY [2] [%] | Post-emergence Herbicidal Activity (% Phytotoxicity) AVEFA (Avena fatua (AVEFA)) [%] | Post-emergence Herbicidal Activity (% Phytotoxicity) LOLPE (Lolium perenne (LOLPE)) [%]
1 | Cc1cc(C)c(C2C(=O)CC(CCNC(=O)c3cccc(Br)n3)C2=O)c(C)c1 (stereo not shown) [Compound A48] | 100 | 100 | 90 | 100 |  |  |  | 
2 | Cc1cc(C)c(C2C(=O)CC(CCNC(=O)C(F)c3ccccc3)C2=O)c(C)c1 (stereo not shown) [Compound A50] | 70 | 20 | 70 | 100 |  |  |  | 
3 | Cc1cc(C)c(C2C(=O)CC(CCNC(=O)c3nonc3C)C2=O)c(C)c1 (stereo not shown) [Compound A51] | 90 | 100 | 90 | 100 |  |  |  | 
4 | Cc1cc(C)c(C2C(=O)CC(CCNC(=O)c3cc4ccccc4n3C)C2=O)c(C)c1 (stereo not shown) [Compound A52] | 100 | 70 | 70 | 90 |  |  |  | 
5 | Cc1cc(C)c(C2C(=O)CC(CCNC(=O)c3cscn3)C2=O)c(C)c1 (stereo not shown) [Compound A53] | 100 | 80 | 90 | 100 |  |  |  | 
6 | Cc1cc(C)c(C2C(=O)CC(CCNC(=O)c3nn(C)nc3C)C2=O)c(C)c1 (stereo not shown) [Compound A54] | 60 | 100 | 100 | 100 |  |  |  | 
7 | Cc1cc(C)c(C2C(=O)CC(CCNC(=O)c3cnccn3)C2=O)c(C)c1 (stereo not shown) [Compound A55] | 90 | 80 | 60 | 90 |  |  |  | 
8 | Cc1cc(C)c(C2C(=O)CC(CCNC(=O)c3cnc(C)cn3)C2=O)c(C)c1 (stereo not shown) [Compound A56] | 90 | 100 | 90 | 100 |  |  |  | 
9 | Cc1cc(C)c(C2C(=O)CC(CCNC(=O)c3ccc(C#N)cn3)C2=O)c(C)c1 (stereo not shown) [Compound A57A] |  |  |  |  | 90 | 100 | 90 | 90
10 | Cc1cc(C)c(C2C(=O)CC(CCNC(=O)c3ccc(C#N)cn3)C2=O)c(C)c1 (stereo not shown) [Compound A57] | 100 | 100 | 100 | 100 |  |  |  | 
11 | Cc1cc(C)c(C2C(=O)CC(CCNC(=O)c3cccn3C)C2=O)c(C)c1 (stereo not shown) [Compound A58] | 50 | 50 | 30 | 80 |  |  |  | 
12 | Cc1cc(C)c(C2C(=O)CC(CCNC(=O)c3nccn3C)C2=O)c(C)c1 (stereo not shown) [Compound A59] | 30 | 60 | 60 | 80 |  |  |  | 
13 | Cc1cc(C)c(C2C(=O)CC(CCNC(=O)c3cnsn3)C2=O)c(C)c1 (stereo not shown) [Compound A60] | 70 | 80 | 90 | 80 |  |  |  | 
14 | Cc1cc(C)c(C2C(=O)CC(CCNC(=O)c3cc(C)on3)C2=O)c(C)c1 (stereo not shown) [Compound A61] | 70 | 90 | 60 | 100 |  |  |  | 
15 | Cc1cc(C)c(C2C(=O)CC(CCNC(=O)c3ncccc3C)C2=O)c(C)c1 (stereo not shown) [Compound A62] | 80 | 100 | 80 | 100 |  |  |  | 
16 | Cc1cc(C)c(C2C(=O)CC(CCNC(=O)c3nccc4ccccc34)C2=O)c(C)c1 (stereo not shown) [Compound A63] | 90 | 90 | 90 | 100 |  |  |  | 
17 | Cc1cc(C)c(C2C(=O)CC(CCNC(=O)c3cccc(C)n3)C2=O)c(C)c1 (stereo not shown) [Compound A64] | 60 | 90 | 80 | 80 |  |  |  | 

Row | Structure (SMILES) | pest or weed control at 250 g/ha [1] [%] | pest or weed control at 250 g/ha [2] [%] | pest or weed control at 250 g/ha (Avena fatua (AVEFA)) [%] | pest or weed control at 250 g/ha (Lolium perenne (LOLPE)) [%] | Post-emergence Herbicidal Activity (% Phytotoxicity) ECHCG [1] [%] | Post-emergence Herbicidal Activity (% Phytotoxicity) ALOMY [2] [%] | Post-emergence Herbicidal Activity (% Phytotoxicity) AVEFA (Avena fatua (AVEFA)) [%] | Post-emergence Herbicidal Activity (% Phytotoxicity) LOLPE (Lolium perenne (LOLPE)) [%]
18 | COc1cc(Cl)nc(C(=O)NCCC2CC(=O)C(c3c(C)cc(C)cc3C)C2=O)c1 (stereo not shown) [Compound A65] | 80 | 100 | 70 | 80 |  |  |  | 
19 | Cc1cc(C)c(C2C(=O)CC(CCNC(=O)c3cccc(N)n3)C2=O)c(C)c1 (stereo not shown) [Compound A66] | 70 | 80 | 40 | 60 |  |  |  | 
20 | COc1cc(OC)nc(C(=O)NCCC2CC(=O)C(c3c(C)cc(C)cc3C)C2=O)n1 (stereo not shown) [Compound A69] | 30 | 50 | 70 | 60 |  |  |  | 
21 | Cc1cc(C)c(C2C(=O)CC(CCNC(=O)c3ncc(C)nc3N)C2=O)c(C)c1 (stereo not shown) [Compound A70] | 90 | 100 | 90 | 100 |  |  |  | 
22 | Cc1cc(C)c(C2C(=O)CC(CCNC(=O)c3nc(C)oc3C(F)(F)F)C2=O)c(C)c1 (stereo not shown) [Compound A71] | 80 | 100 | 90 | 100 |  |  |  | 
23 | Cc1cc(C)c(C2C(=O)CC(CCNC(=O)c3cc(C)nn3C)C2=O)c(C)c1 (stereo not shown) [Compound A72] | 70 | 90 | 90 | 90 |  |  |  | 
24 | Cc1cc(C)c(C2C(=O)CC(CCNC(=O)c3csc(C)n3)C2=O)c(C)c1 (stereo not shown) [Compound A73] | 90 | 90 | 90 | 80 |  |  |  | 
25 | Cc1cc(C)c(C2C(=O)CC(CCNC(=O)c3n[nH]c4ccccc34)C2=O)c(C)c1 (stereo not shown) [Compound A74] | 70 | 90 | 30 | 80 |  |  |  | 
26 | Cc1cc(C)c(C2C(=O)CC(CCNC(=O)c3cc(C)n(C)n3)C2=O)c(C)c1 (stereo not shown) [Compound A75] | 90 | 90 | 90 | 90 |  |  |  | 
27 | Cc1cc(C)c(C2C(=O)CC(CCNC(=O)c3c(C)nc4ccccn34)C2=O)c(C)c1 (stereo not shown) [Compound A76] | 80 | 70 | 90 | 60 |  |  |  | 
28 | Cc1cc(C)c(C2C(=O)CC(CCNC(=O)c3nn(C)cc3C(F)(F)F)C2=O)c(C)c1 (stereo not shown) [Compound A77] | 90 | 70 | 90 | 90 |  |  |  | 
29 | Cc1cc(C)c(C2C(=O)CC(CCNC(=O)c3nc(C)ncc3Br)C2=O)c(C)c1 (stereo not shown) [Compound A78] | 80 | 80 | 80 | 60 |  |  |  | 
30 | Cc1cc(C)c(C2C(=O)CC(CCNC(=O)c3sc(C)nc3C)C2=O)c(C)c1 (stereo not shown) [Compound A79] | 70 | 80 | 80 | 70 |  |  |  | 
31 | CCc1cc(Br)cc(C)c1C1C(=O)CC(CCNC(=O)c2ccccn2)C1=O (stereo not shown) [Compound A83] | 100 | 100 | 100 | 100 |  |  |  | 
32 | CC#Cc1cc(C)c(C2C(=O)CC(CCNC(=O)c3ccccn3)C2=O)c(CC)c1 (stereo not shown) [Compound A84, N-[2-[3-(2-ethyl-6-methyl-4-prop-1-ynyl-phenyl)-2,4-dioxo-cyclopentyl]ethyl]pyridine-2-carboxamide] | 100 | 100 | 100 | 100 |  |  |  | 
33 | C#Cc1cc(C)c(C2C(=O)CC(CCNC(=O)c3ccccn3)C2=O)c(CC)c1 (stereo not shown) [Compound A85, N-[2-[3-(2-ethyl-4-ethynyl-6-methyl-phenyl)-2,4-dioxo-cyclopentyl]ethyl]pyridine-2-carboxamide] | 100 | 90 | 100 | 100 |  |  |  | 
34 | CCc1cc(-c2ccc(F)cc2)cc(C)c1C1C(=O)CC(CCNC(=O)c2ccccn2)C1=O (stereo not shown) [Compound A86, N-[2-[3-[2-ethyl-4-(4-fluorophenyl)-6-methyl-phenyl]-2,4-dioxo-cyclopentyl]ethyl]pyridine-2-carboxamide] | 100 | 100 | 100 | 100 |  |  |  | 
